Assays:
[1] = system: human MCF-7 cells; assay: Visually scored toxicity of NAC-MTN / NAC-DOX at fixed loading (Example 3); type: cell-based; settings: 5.6 ug/ml final drug; 5.1% drug loading; 16 hour incubation
Experimental: Toxicity of NAC-MTN or NAC-DOX, at 50, 16.9, 5.6, and 1.9 ug/ml final drug concentration and 5.1 % drug loading in human MCF-7 cells. Sample A: 15 mg of HSDNA (EX031804A) was combined with 0.76 mg MTN(mw 517.4) or (sample B) 0.76 mg DOX (mw 579.99) to give 152 ug/ml final drug and 5.1% loading in 5 ml final vol. Samples C, D were MTN, or DOX only controls at equivalent final [drug] without HSDNA. Sample E was HSDNA, no drug and sample F was H2O only. MCF-7 cells were trypsinized and plated out previously. Triplicate samples were diluted 0.1 ml in 0.2 ml 1× media to give 3× fold serial dilution in 0.2 ml final. After 16 hour incubation the cells were visually inspected for signs of toxicity. Toxicity was scored as the following: 50%=one half all cells rounded, un-adhered or crenated.

[2] = system: MCF7; assay: Toxicity of NAC-MTN vs CD-MTN and MTN, MTT (Example 9, EX042105); type: cell-based, human
Experimental: (§1) FIG. 4. […] The relative toxicity of NAC-MTN was compared with MTN and CD-MTN in four cell lines, MCF7(breast cancer), COS7green monkey kidney (SV40 transformed), 3T3 (mouse fibroblast), and BHK21(hamster kidney). Cells were treated with identical amounts of MTN formulated as either NAC-MTN, MTN only, or poly-beta-cyclodextrin-sulfylbutylether(CD-MTN). After an incubation period, cell viability was assayed with MTT assay. The differences in toxicity between NAC-MTN and MTN or NAC-MTN and CD-MTN are shown as % difference. Greater percentage difference correlates to more reduction in relative NAC-MTN toxicity.
(§2) MCF7, COS7, 3T3, and BHK21 cells were plated out in duplicate rows of equivalent cell density in 100ul final volume. Initial cell densities were 2000 cells/well.
(§3) Preparing NAC-MTN, CD-MTN, and MTN only. Combined 180 ul of 0.05 mg/ml MTN with […] 0.1 mg/ml herring sperm genomic DNA (HSGDNA, Promega), 1500 ul of 2× DMEM media containing 20% FBS to give 3.0 ml final volume and 12% final drug loading in the dsDNA. For MTN only, 180 ul of MTN was combined with 1320 ul H2O and 1500 ul 2× DMEM. […]
(§4) Aspirated media in plate and replaced with 50 ul of 0.5 mg/ml MTT in 1× media, incubated 3 hours, aspirated, air dried 5 min and dissolved in 100 ul of isopropyl, read OD at A570. […]

[3] = system: COS7; assay: as above; type: cell-based, green monkey
Experimental: as §1, §2, §3, §4

[4] = system: BHK21; assay: Effect of plating time on uptake of NAC-MTN and MTN, fluorescence (Example 11); type: cell-based, hamster
Experimental: The effect of plating time on the differential rates of uptake between NAC-MTN and MTN were assayed in cells treated <1 hour and 24 hours after plating.
On day 1, MCF7, COS7, 3T3, and BHK21 cells were plated out in a standard tissue culture plate. After incubation of 20 minutes samples were added to cells in rows A, C, E, and G. Cells were incubated at 37C in a standard atmosphere of 5%CO2.
On day 2, samples were added to rows D, F, and H and the fluorescence was obtained EX620/EM680 S=80. Samples were removed from A,C,E and G, replaced with media and fluorescence read again. On day 2 observed significant drug toxicity in cells of rows A,C, E, G. Sample addition was postponed in row B since MCF7 were not yet confluent.
On day 3, added samples to cells in row B containing confluent MCF7's, removed samples from rows D, F, and H replaced with media and read fluorescence.
Fluorescence data from cells taken after removal of media was used to quantitate total MTN retained in the cells. Fluorescence data were converted to mg/ml MTN using a standard curve prepared with free MTN or NAC-MTN.
The percentage difference in fluorescence between cells treated with NAC-MTN or MTN alone was used to compare relative drug uptake.
The MTN fluorescence ratios were obtained by dividing MTN fluorescence of cells incubated for 24 hours by fluorescence of cells incubated 30 minutes. […] The uptake in BHK21 was roughly equivalent for NAC-MTN regardless of plate adherence, however it should be noted that BHK21 adhere very rapidly to the plate.
Fluorescence data were converted to micromolar drug concentrations (uM MTN) using a standard curve for either nucleic acid bound or unbound drug, and drug uptake ratios were obtained by dividing the t(24 hour)/t(30 min.). The ratios of absolute drug concentration per well show more dramatic differences in uptake as shown below.

[5] = 2 uM final MTN, MTT 48 hours after adding samples

In the case of O=C1c2c(O)ccc(O)c2C(=O)c2c(NCCNCCO)ccc(NCCNCCO)c21 [MTN, mitoxantrone], the “Toxicity (visual score)” value [1] is reported as 90%, the “% tox. relative to media only” value [2, 5] is reported as 48.39% and the toxic effect ([2]; after 24 hours, 2 uM MTN) is reported as “no toxic effect”. The “% tox. relative to media only” value [3, 5] was 56.65%, the toxic effect ([3]; after 24 hours, 2 uM MTN) was “no toxic effect” and the “MTN FLUOR Ratio of t(24)/t(<1)” value [4] was 0.73. For the same compound, the “FLUOR (MTN fluorescence in cells)” value ([4]; cells treated 24 hour after plating) was 10746, the “FLUOR (MTN fluorescence in cells)” value ([4]; cells treated <1 hour after plating) was 9557 and the “Ratio uM MTN of t(24)/t(<1)” value ([4]; from standard curve for bound or unbound drug) was 1.2.

Source: US20070225213A1, “Nucleic acid carriers for delivery of therapeutic agents” (priority 2006, published 2007)
